Columns and labels:
PANC-1 cells = assay: In vitro cytotoxicity assay (MTT), 96 h, RRM2 over-expressing cells; type: cell-based, human; settings: for IC50: MTT, 96 h incubation, RRM2 over-expressing
Source text: (§1) Human leukemia cell line CCRF-CEM (CCL-119), human pancreatic cancer cell lines PANC-1 (CRL-1469), MIA PaCa-2 (CRL-1420), and BxPC-3 (CRL-1687), human breast adenocarcinoma cell line MCF-7 (HTB-22), and mouse lung cancer cell line TC-1 (CRL-2785) were from the American Type Culture Collection (Rockville, Md.). CCRF-CEM-AraC-8C cells (hENT1 deficient) and CCRF-CEM/dCK^−/− cells (dCK deficient) were kindly provided by Dr. Buddy Ullmann (Oregon Health & Science University, Portland, Oreg.) and Dr. Margaret Black (Washington State University, Pullman, Wash.), respectively. L1210 wt and L1210 10K were kindly supplied by Dr. Lars Petter Jordheim (Université Claude Bernard Lyon I, Lyon, France). TC-1-GR cells were previously developed in our lab. CCRF-CEM, CCRF-CEM-AraC-8C, CCRF-CEM/dCK^−/−, L1210 wt, L1210 10K, TC-1, and TC-1-GR cells were cultured in RPMI 1640 medium. MCF-7 and PANC-1 cells were cultured in Dulbecco's modified Eagle medium (DMEM), MIA PaCa-2 cells were cultured in DMEM medium with 2.5% horse serum. All media were supplemented with 10% fetal bovine serum (FBS), 100 U/mL of penicillin, and 100 μg/mL of streptomycin (all from Invitrogen, Carlsbad, Calif.).
(§2) Cells (5,000/well) were seeded in 96-well plates. After overnight incubation, they were treated with various concentrations of gemcitabine HCl, gemcitabine derivatives, or gemcitabine derivatives in nanoparticles at 37° C., 5% CO2. TC-1 and TC-1-GR cells were incubated for 48 h. CCRF-CEM, CCRF-CEM-AraC-8C, CCRF-CEM/dCK^−/−, L1210 wt, L1210 10K, and MCF-7 cells were incubated for 72 h, and MIA PaCa-2 and PANC-1 for 96 h. Gemcitabine HCl was dissolved in phosphate-buffered saline (PBS), and gemcitabine derivatives were dissolved in dimethyl sulfoxide (DMSO). […] The number of viable cells after the incubation was determined using an MTT assay. Briefly, 3-(4,5-dimethylthiazol-2-yl)-2,5-diphenyltetrazolium bromide (20 μl, 5 mg/mL) was added in each well and incubated for 3 h. Formazan crystals were solubilized with acidified isopropanol (150 μl) (for CCRF-CEM, CCRF-CEM-AraC-8C, CCRF-CEM/dCK^−/−, L1210 wt, and L1210 10K cells) or DMSO (150 μl) (for TC-1, TC-1-GR, MCF-7, PANC-1, and MIA PaCa-2). Absorbance was measured using a BioTek Synergy™ HT Multi-Mode Microplate Reader (BioTek Instruments, Winooski, Vt.) at 570 nm and 630 nm. The fraction of affected (dead) cells (Fa) and the fraction of unaffected (live) cells (Fu) at every dose were calculated, and the Log(Fa/Fu) values were plotted against the Log(concentration of gemcitabine). IC50 was the dose at Log(Fa/Fu)=0, See e.g., Chou, T. C. & Talalay, P., 1984, Adv. Enzyme Regul. 22:27-55. The experiment was repeated at least three times.

CCRF-CEM-AraC-8C cells = assay: In vitro cytotoxicity assay (MTT), 72 h, hENT1 deficient cells; type: cell-based, human; settings: for IC50: MTT, 72 h incubation, hENT1 deficient
Source text: as §1, §2

MIA PaCa-2 cells = assay: In vitro cytotoxicity assay (MTT), 96 h; type: cell-based, human; settings: 96 h incubation
Source text: as §1, §2

CCRF-CEM cells = assay: In vitro cytotoxicity assay (MTT), 72 h; type: cell-based, human; settings: 72 h incubation
Source text: as §1, §2

TC-1-GR cells = assay: cells; type: cell-based; settings: for IC50: MTT, 48 h incubation, RRM1 over-expressing
Source text: as §1, §2

TC-1 cells = assay: In vitro cytotoxicity assay (MTT), 48 h; type: cell-based; settings: 48 h incubation
Source text: as §1, §2

[1] = Solubility observations (DMSO, water); type: physicochemical; settings: for the in vitro cytotoxicity assay
CCRF-CEM/dCK−/− cells = assay: In vitro cytotoxicity assay (MTT), 72 h, dCK deficient cells; type: cell-based, human; settings: MTT, 72 h incubation; dCK deficient
Source text: as §1
Cells (5,000/well) were seeded in 96-well plates. After overnight incubation, they were treated with various concentrations of gemcitabine HCl, gemcitabine derivatives, or gemcitabine derivatives in nanoparticles at 37° C., 5% CO2. TC-1 and TC-1-GR cells were incubated for 48 h. CCRF-CEM, CCRF-CEM-AraC-8C, CCRF-CEM/dCK^−/−, L1210 wt, L1210 10K, and MCF-7 cells were incubated for 72 h, and MIA PaCa-2 and PANC-1 for 96 h. […] The number of viable cells after the incubation was determined using an MTT assay. […] Absorbance was measured using a BioTek Synergy™ HT Multi-Mode Microplate Reader (BioTek Instruments, Winooski, Vt.) at 570 nm and 630 nm. The fraction of affected (dead) cells (Fa) and the fraction of unaffected (live) cells (Fu) at every dose were calculated, and the Log(Fa/Fu) values were plotted against the Log(concentration of gemcitabine). […]

B16-F10 melanoma tumor = assay: Antitumor activity of GemC18/PEG-C18 micelles in mice with B16-F10 tumors (Example 20); type: in vivo, mouse; settings: C57BL/6 mice, tail vein injection, 0.283 mg GemHCl or molar equivalent GemC18; 2 doses (micelles 3 doses), 3 days apart
Procedure: The in vivo antitumor activity of GemC18/PEG-C18 micelles was evaluated in C57BL/6 mice with subcutaneously inoculated B16-F10 cells (5.0×10^5/mouse) in the right flank. Treatments were given 6 days after tumor cell inoculation by tail vein injection with normal saline, Gemcitabine HCl (GemHCl) solution, GemC18 solution, blank PEG-C18 micelles, or GemC18/PEG-C18 micelles. The dose was 0.283 mg of GemHCl or molar equivalent amount of GemC18. All groups received a second dose three days after the first dose, while the GemC18/PEG-C18 micelle group also received a third dose 3 days after the second dose. Tumor sizes were measured with calipers in two perpendicular diameters every day and reported as tumor volume (V=½ [a×b^2], a=longer diameter, b=shorter diameter).

[2] = IC50 of gemcitabine HCl divided by that of the derivatives or derivatives in nanoparticles

## CCCCCCCCCCCCCCCCCC(=O)OCC(Cl)COP(=O)(O)OC[C@H]1O[C@@H](n2ccc(N)nc2=O)C(F)(F)[C@@H]1O (mixture of isomers) [Compound 12, 2′-2′-difluoro-2′-deoxycytidine 5′(3-stearoyloxy-2-rac-chloropropyl)phosphate]
PANC-1 cells
  IC50: 58700 ± 14200 nM
CCRF-CEM-AraC-8C cells
  IC50: 1770 ± 533 nM
MIA PaCa-2 cells
  IC50: 245 ± 38 nM
CCRF-CEM cells
  IC50: 49.8 ± 5.9 nM
TC-1-GR cells
  IC50: 76300 ± 10500 nM
TC-1 cells
  IC50: 430 ± 52.4 nM

## CCCCCCCCCCCCCCCCCC(=O)Nc1ccn([C@@H]2O[C@H](COP(=O)(O)O)C(O)C2(F)F)c(=O)n1 (stereo in doubt) [Compound 13, 4-N-Octadecanoyl-2′-2′-difluoro-2′-deoxycytidine 5′-sodiumphosphate]
[1]
  solubility in DMSO: not sufficiently solubilized in DMSO

## CCCCCCCCCCCCCCCCCC(=O)Nc1ccn([C@@H]2OC(CO)C(O)C2(F)F)c(=O)n1 (stereo partly shown) [GemC18, 4-N-stearoyl gemcitabine]
PANC-1 cells
  Ratio of IC50 in PANC-1 to that in MIA PaCa-2: 45
  IC50: 6000 ± 1100 nM
CCRF-CEM-AraC-8C cells
  Ratio of IC50 in CCRF-CEM-AraC-8C to that in CCRF-CEM: 19
  IC50: 369 ± 235 nM
CCRF-CEM-AraC-8C cells; [2]
  Ratio of IC50 values in CEM-AraC-8C cells: 2.7
MIA PaCa-2 cells
  IC50: 133 ± 60.4 nM
CCRF-CEM/dCK−/− cells
  IC50: 47300 ± 8700 nM
CCRF-CEM cells
  IC50: 19.4 ± 13.3 nM
TC-1-GR cells; [2]
  Ratio of IC50 values in TC-1-GR cells: 5
TC-1-GR cells
  IC50: 7700 ± 2400 nM
TC-1 cells
  IC50: 132 ± 17.2 nM
B16-F10 melanoma tumor
  B16-F10 tumor growth (tumor volume): not significant different from that in mice that received normal saline

## CCCCCCCCCCCCCCCCCCOP(=O)(O)OC[C@H]1O[C@@H](n2ccc(NC(C)=O)nc2=O)C(F)(F)[C@@H]1O [Compound 9, 4-N-acetyl-2′-2′-difluoro-2′-deoxycytidine-5′-octadecylphosphate]
PANC-1 cells
  IC50: 38500 ± 5700 nM
CCRF-CEM-AraC-8C cells
  IC50: 575 ± 97.1 nM
MIA PaCa-2 cells
  IC50: 205 ± 39.5 nM
CCRF-CEM cells
  IC50: 58.1 ± 18.5 nM
TC-1-GR cells
  IC50: 9300 ± 2500 nM
TC-1 cells
  IC50: 211 ± 85 nM

From patent US20130131008A1, “LIPOPHILIC MONOPHOSPHORYLATED DERIVATIVES AND NANOPARTICLES” (BOARD OF REGENTS, THE UNIVERSITY OF TEXAS SYSTEM, priority 2011, published 2013)
